Laboratory results as given in US20200239530A1, “COMPOUNDS AND METHODS OF MODULATING PROTEIN DEGRADATION” (Vividion Therapeutics, Inc., priority 2017, published 2020).

Columns and labels:
Assay in all cases: Cysteine liganding, probe competition
Format in all cases: binding
[1] = molecular target: T1, HERC5 E3 ISG15--protein ligase HERC5 (Homo sapiens, UniProt Q9UII4); conditions: for Liganded: HERC5 Res# 994, uniprot Q9UII4
T1 construct: Cells were resuspended in cold PBS on ice and sonicated with a probe sonicator to achieve lysis; endogenous in cells
T1 sequence (Q9UII4 1-1024): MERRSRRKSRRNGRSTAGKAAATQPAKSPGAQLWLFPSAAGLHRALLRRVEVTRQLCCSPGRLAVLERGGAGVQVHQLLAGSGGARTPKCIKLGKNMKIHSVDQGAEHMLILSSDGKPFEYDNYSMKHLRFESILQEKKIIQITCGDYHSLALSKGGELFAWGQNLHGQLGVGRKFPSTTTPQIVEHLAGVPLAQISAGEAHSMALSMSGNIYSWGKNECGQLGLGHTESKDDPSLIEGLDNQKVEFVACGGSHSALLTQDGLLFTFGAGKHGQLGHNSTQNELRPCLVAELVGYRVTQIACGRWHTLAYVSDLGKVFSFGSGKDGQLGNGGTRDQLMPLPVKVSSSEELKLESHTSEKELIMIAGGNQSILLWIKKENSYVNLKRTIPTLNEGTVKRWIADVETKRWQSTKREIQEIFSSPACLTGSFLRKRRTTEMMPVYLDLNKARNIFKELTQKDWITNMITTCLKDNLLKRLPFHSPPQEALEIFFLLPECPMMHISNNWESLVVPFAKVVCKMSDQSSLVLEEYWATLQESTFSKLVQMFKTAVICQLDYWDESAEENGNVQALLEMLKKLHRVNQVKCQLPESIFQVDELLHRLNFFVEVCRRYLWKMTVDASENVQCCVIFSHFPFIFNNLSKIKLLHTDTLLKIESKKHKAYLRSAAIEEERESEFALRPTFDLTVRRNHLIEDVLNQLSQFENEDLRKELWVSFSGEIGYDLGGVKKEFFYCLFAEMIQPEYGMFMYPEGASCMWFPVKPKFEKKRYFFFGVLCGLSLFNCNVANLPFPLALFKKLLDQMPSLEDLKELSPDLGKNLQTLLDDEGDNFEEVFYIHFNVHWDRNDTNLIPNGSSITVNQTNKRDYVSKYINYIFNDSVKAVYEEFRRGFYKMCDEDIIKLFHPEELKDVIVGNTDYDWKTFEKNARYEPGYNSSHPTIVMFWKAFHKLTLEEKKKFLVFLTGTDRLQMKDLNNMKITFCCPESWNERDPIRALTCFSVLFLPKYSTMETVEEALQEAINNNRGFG
Summary of the method: (§1)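 Steps: sonicate cells in cold PBS; treat 5 mg/ml lysate with compound (25° C, 1 hr); add desthiobiotin iodoacetamide probe from a 10 mM stock (25° C, 1 hr); precipitate, reduce, alkylate, digest with trypsin; capture labelled peptides on streptavidin for analysis.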

[2] = molecular target: T2, HUWE1 E3 ubiquitin-protein ligase HUWE1 (Homo sapiens, UniProt Q7Z6Z7)
T2 construct: Cells were resuspended in cold PBS on ice and sonicated with a probe sonicator to achieve lysis; endogenous in cells
T2 sequence (Q7Z6Z7 whole entry): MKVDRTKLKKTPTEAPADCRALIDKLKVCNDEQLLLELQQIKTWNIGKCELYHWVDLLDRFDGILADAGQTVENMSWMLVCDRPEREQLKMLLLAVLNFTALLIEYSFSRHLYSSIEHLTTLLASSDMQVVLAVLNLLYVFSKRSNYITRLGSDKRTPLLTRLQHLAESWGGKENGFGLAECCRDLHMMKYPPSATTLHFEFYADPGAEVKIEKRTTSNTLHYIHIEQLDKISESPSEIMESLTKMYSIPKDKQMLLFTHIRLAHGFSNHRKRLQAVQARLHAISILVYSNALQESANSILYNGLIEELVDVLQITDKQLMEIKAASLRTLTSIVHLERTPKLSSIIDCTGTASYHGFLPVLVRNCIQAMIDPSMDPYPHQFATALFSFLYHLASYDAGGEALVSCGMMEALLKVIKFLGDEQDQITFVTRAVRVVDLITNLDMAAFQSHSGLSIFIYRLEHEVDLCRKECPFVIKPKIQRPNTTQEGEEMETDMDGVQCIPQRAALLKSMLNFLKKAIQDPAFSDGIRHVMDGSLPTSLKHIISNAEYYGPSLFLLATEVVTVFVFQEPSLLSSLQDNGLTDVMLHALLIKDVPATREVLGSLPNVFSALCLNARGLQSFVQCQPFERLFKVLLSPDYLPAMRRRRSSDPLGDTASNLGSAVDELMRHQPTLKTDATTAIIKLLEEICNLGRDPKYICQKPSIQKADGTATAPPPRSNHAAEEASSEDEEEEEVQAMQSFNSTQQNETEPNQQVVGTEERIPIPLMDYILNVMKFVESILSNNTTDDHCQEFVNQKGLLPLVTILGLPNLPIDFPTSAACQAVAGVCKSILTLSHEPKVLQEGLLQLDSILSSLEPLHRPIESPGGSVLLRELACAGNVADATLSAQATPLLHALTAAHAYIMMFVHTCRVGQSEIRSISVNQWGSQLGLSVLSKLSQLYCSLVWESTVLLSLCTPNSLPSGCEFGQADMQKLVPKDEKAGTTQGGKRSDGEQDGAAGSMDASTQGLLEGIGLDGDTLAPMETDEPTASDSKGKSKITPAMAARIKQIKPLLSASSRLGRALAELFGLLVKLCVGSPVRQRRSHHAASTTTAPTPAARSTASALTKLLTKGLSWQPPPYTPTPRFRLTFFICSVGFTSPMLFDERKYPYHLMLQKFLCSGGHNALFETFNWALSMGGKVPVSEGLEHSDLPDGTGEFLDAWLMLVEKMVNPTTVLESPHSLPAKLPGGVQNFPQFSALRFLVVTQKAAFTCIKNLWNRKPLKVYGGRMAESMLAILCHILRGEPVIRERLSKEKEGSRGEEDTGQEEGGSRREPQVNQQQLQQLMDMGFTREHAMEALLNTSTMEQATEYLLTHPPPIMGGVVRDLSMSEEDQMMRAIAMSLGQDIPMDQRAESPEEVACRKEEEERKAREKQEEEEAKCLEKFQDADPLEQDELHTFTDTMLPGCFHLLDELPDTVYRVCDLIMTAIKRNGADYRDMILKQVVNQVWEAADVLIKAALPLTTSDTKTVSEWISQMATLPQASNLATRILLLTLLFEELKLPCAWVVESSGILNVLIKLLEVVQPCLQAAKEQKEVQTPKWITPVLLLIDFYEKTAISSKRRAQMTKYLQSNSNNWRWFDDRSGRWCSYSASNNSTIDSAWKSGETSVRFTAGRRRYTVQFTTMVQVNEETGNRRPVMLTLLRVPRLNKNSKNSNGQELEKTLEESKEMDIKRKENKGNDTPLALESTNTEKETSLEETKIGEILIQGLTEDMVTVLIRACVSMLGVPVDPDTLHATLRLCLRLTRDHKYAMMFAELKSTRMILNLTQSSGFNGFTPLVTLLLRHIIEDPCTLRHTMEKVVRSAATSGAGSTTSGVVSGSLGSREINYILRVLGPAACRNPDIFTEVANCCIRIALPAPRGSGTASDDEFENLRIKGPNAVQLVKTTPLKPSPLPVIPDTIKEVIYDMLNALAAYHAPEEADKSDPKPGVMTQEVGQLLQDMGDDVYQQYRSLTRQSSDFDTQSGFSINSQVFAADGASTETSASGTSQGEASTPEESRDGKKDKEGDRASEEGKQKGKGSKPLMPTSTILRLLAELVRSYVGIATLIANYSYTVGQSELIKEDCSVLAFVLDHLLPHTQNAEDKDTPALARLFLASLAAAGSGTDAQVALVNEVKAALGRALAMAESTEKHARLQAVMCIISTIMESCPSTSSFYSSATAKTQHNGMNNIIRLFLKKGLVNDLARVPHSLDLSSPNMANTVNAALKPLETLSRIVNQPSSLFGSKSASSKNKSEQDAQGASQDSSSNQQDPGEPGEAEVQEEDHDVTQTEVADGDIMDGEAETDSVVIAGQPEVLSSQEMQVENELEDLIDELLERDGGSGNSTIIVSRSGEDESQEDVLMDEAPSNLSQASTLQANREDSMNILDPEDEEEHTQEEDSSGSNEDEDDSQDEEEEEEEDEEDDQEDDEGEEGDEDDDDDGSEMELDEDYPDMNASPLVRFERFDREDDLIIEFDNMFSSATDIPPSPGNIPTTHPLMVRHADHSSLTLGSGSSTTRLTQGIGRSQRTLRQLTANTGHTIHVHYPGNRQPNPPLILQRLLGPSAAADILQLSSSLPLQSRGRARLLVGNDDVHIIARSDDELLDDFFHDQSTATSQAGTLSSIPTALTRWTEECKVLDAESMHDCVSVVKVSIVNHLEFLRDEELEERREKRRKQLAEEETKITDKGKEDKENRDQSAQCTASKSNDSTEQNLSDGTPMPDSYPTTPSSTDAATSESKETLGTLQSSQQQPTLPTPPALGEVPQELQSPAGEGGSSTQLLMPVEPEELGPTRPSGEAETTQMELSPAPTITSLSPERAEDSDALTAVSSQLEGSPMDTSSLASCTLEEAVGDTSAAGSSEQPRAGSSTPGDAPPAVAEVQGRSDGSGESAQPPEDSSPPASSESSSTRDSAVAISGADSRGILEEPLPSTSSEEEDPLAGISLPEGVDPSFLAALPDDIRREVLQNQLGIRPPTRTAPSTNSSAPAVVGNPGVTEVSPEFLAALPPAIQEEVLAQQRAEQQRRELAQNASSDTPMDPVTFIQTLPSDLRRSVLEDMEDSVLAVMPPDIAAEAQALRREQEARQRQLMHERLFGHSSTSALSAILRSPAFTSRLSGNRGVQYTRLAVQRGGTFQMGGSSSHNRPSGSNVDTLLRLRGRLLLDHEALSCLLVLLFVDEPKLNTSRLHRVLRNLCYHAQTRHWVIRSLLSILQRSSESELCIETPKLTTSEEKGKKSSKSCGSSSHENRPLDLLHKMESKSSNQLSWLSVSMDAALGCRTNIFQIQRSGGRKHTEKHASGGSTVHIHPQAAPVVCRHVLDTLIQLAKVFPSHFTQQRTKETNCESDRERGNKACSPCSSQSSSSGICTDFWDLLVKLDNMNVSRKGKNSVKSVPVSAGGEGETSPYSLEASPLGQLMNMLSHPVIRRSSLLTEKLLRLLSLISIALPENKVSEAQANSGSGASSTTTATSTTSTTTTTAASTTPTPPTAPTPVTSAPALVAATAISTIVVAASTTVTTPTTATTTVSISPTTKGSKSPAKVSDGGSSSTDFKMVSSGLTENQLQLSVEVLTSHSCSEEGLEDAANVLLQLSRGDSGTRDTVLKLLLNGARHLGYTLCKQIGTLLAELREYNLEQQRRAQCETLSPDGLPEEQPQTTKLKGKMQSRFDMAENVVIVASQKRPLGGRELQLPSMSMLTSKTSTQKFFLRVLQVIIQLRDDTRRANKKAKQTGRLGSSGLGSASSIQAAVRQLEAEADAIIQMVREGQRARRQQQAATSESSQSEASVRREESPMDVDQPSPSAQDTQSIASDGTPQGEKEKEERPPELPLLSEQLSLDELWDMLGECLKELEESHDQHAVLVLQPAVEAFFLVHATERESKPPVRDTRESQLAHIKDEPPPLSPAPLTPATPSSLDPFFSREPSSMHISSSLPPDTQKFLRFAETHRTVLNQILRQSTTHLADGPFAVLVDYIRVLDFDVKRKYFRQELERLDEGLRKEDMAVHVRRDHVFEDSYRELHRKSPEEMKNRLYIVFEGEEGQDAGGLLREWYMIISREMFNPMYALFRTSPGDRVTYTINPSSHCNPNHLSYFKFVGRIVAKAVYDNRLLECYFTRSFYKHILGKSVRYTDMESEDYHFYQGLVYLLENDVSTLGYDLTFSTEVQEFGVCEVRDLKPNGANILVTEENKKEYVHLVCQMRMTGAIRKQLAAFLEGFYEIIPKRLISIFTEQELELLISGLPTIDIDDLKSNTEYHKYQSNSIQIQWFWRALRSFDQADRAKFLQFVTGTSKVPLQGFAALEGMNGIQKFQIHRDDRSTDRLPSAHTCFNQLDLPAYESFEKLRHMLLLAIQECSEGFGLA
Summary of the method: as §1

[3] = molecular target: T3, KDSR 3-ketodihydrosphingosine reductase (Homo sapiens, UniProt Q06136)
T3 construct: Cells were resuspended in cold PBS on ice and sonicated with a probe sonicator to achieve lysis; endogenous in cells
T3 sequence (Q06136 26-332): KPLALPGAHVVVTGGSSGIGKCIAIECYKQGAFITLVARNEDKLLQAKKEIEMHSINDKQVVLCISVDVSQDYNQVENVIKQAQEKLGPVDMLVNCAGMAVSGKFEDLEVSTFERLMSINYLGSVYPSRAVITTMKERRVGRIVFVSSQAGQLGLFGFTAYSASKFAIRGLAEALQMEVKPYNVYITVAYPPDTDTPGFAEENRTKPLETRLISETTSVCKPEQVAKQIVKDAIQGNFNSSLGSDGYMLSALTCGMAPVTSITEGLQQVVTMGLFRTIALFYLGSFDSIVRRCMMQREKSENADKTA
Summary of the method: as §1

SMILES | Liganded [1] | Liganded ([2]; HUWE1 Res# 2181, uniprot Q7Z6Z7) | Liganded ([3]; KDSR Res# 121, uniprot Q06136) | 100 Max ([1]; uniprot Q9UII4) | 100 ave ([1]; uniprot Q9UII4) | 500 Max ([1]; uniprot Q9UII4) | 500 ave ([1]; uniprot Q9UII4) | 100 ave ([2]; uniprot Q7Z6Z7) | 100 Max ([2]; uniprot Q7Z6Z7, unit assumed) [%] | 100 ave ([3]; uniprot Q06136) | 100 Max ([3]; uniprot Q06136, in % (unit assumed))
COc1ccc2c(c1)CCCN2C(=O)CCl [KB02] | YES | YES | YES | – | – | – | – | – | – | – | –
O=C(CCl)Nc1cc(C(F)(F)F)cc(C(F)(F)F)c1 [KBO3] | YES | – | – | 83.4 | 83.4 | 96.8 | 96.8 | 9.7 | 9.7 | −22.72 | −22.72
